26 compounds from patent US9079853B2, “Isatin compounds, compositions and methods for treatment of degenerative diseases and disorders” (MUSC FOUNDATION FOR RESEARCH DEVELOPMENT, priority 2013, dated 2015) can be followed below.

Test [1] has as its system 661W or C6 cells. As to the kind of experiment: MTT assay, protection against calcium-ionophore A23187. Type of test: cell-based. The following applies: 1 μM A23187, 24 h. How it is done: The compound 3-(4,5-Dimethylthiazol-2-yl)-2,5-diphenyltetrazolium bromide (MTT) is a tetrazolium ion that is reduced to a blue formazan dye via several families of NAD(P)H-dependent oxidoreductases. Formation of the formazan dye from MTT or other related tetrazolium dyes are commonly used as a viability assay even though, in fact, the assay is a metabolic capacity assay.
In this assay, 661W or C6 cells were maintained in DMEM supplemented with 10% FBS. 100 μL of 70,000 cells/mL cells were seeded into each well of 96 well plates using DMEM supplemented with 5% FBS. Cells were then allowed to grow to confluency for 48 hours. The compounds of the invention were added in 2 μL media and calcium-ionophore A23187 was then added in 1 μL for a final concentration of 1 μM and after 24 h, 20 μL of […] MTT were added to each well and the cells were incubated for another 4 h after which 100 μL of 1% SDS in 0.01M aqueous HCl were added to each well and the plates were incubated overnight. Absorbance was measured at […] (background correction). The 1 μM ionophore A23187 caused about 50% loss in MTT signal at 24 h. Protection was calculated as the increase in absorbance of treatment groups normalized to the vehicle control.
On the technique in general: Formazan colour is commonly taken as a measure of viable cells.

The subject of test [2] is 661W or C6 cells. The test is described as follows: XF FCCP-uncoupled oxygen consumption rate assay (IBMX challenge).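 On all read-outs here: values normalized to the vehicle control.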 Conditions: 1 h pretreatment, 600 μM IBMX, 24 h, read-out: XF FCCP OCR (% Ctrl); for activity at 0.001 µM: compound 1 nM; for activity at 0.0008 µM: compound 800 pM; for activity at 0.01 µM: compound 10 nM. Type of test: cell-based. How it is done: The XF FCCP-uncoupled oxygen consumption rate assay assesses mitochondrial capacity by measuring cellular respiration. It was shown that the maximum FCCP-uncoupled oxygen consumption rate (OCR) was a good estimate of maximal mitochondrial capacity (Beeson 2010) and that IBMX treatment of 661W or C6 cells for 24 h caused a loss in maximal uncoupled OCR (Perron 2013). Thus, cells were pretreated with the exemplified compounds for 1 h, added 600 μM IBMX and then measured the uncoupled rate after 24 h. In brief, the OCR measurements were performed using a Seahorse Bioscience XF instrument (Seahorse Bioscience, Billerica, Md.), as previously published (Perron 2013). O2 leakage through the plastic sides and bottom of the plate was accounted for using the AKOS algorithm in the XF software package. Cells were plated on 96- or 24-well custom plates designed for use in the XF and grown to confluency in DMEM+5% FBS (48 h). The medium was then replaced with DMEM+1% FBS for 24 h, along with any treatments.

Take `COc1cccnc1CC1(O)C(=O)N(CCc2ccccc2)c2ccc(Cl)cc21` (stereo not shown) [Example 3, 5-chloro-3-hydroxy-3-((3-methoxypyridin-2-yl)methyl)-1-phenethylindolin-2-one]: the “MTT, % protection” value in the test on 661W or C6 cells [1] (compound 1 nM) was 74.5%,. Also, the activity at 0.001 µM with 661W or C6 cells [2] came to 74.5%.
Turning to `O=C1N(CCN2CCCCC2)c2ccc(Cl)cc2C1(O)Cc1ccccn1` (stereo not shown) [Example 4, 5-chloro-3-hydroxy-1-(2-(piperidin-1-yl)ethyl)-3-(pyridin-2-ylmethyl)indolin-2-one], in the test on 661W or C6 cells [1] (compound 800 pM), the “MTT, % protection” value is recorded as 61.5%,. Further, the activity at 0.001 µM in the test with 661W or C6 cells [2] was found to be 69%.
For `CCCN1C(=O)C(O)(Cc2ccc(OC)cn2)c2cc(C)ccc21` (stereo not shown) [Example 6, 3-hydroxy-3-((5-methoxypyridin-2-yl)methyl)-5-methyl-1-propylindolin-2-one], the “MTT, % protection” value in the test on 661W or C6 cells [1] (compound 500 pM) is recorded as 68.8%,. Moreover, the activity at 0.0008 µM in the test on 661W or C6 cells [2] stood at 67%.
Take `CCCN1C(=O)C(O)(CC(=O)c2ccc(OC)nc2OC)c2cc(Cl)ccc21` (stereo not shown) [Example 22, 5-chloro-3-(2-(2,6-dimethoxypyridin-3-yl)-2-oxoethyl)-3-hydroxy-1-propylindolin-2-one]: the “MTT, % protection” value in the test with 661W or C6 cells [1] (compound 10 nM) is recorded as 71.8%,. Also, the activity at 0.01 µM with 661W or C6 cells [2] worked out at 76%.
The matching figures for `CCCN1C(=O)C(O)(CC(=O)c2ccccn2)c2cc(Cl)ccc21` (stereo not shown) [Example 23, 5-chloro-3-hydroxy-3-(2-oxo-2-(pyridin-2-yl)ethyl)-1-propylindolin-2-one]: 73%, and 73%.
For `CCCN1C(=O)C(O)(CC(=O)c2c[nH]c3ccccc23)c2cc(C)ccc21` (stereo not shown) [Example 24, 3-(2-(1H-indol-3-yl)-2-oxoethyl)-3-hydroxy-5-methyl-1-propylindolin-2-one], the “MTT, % protection” value in the test on 661W or C6 cells [1] (compound 1 nM) is 69%,. Besides, the activity at 0.01 µM with 661W or C6 cells [2] was determined as 59%.
For the compound `CCCN1C(=O)C(O)(CC(=O)c2ccc(OC)nc2OC)c2cc(C)ccc21` (stereo not shown) [Example 25, 3-(2-(2,6-dimethoxypyridin-3-yl)-2-oxoethyl)-3-hydroxy-5-methyl-1-propylindolin-2-one], the “MTT, % protection” value in the test on 661W or C6 cells [1] (compound 1 nM) is 73.8%,. Besides, in the test with 661W or C6 cells [2], the activity at 0.001 µM was 57%.
`CCCN1C(=O)C(O)(CC(=O)c2cccc(OC)n2)c2cc(C)ccc21` (stereo not shown) [Example 26, 3-hydroxy-3-(2-(6-methoxypyridin-2-yl)-2-oxoethyl)-5-methyl-1-propylindolin-2-one]: the “MTT, % protection” value in the test on 661W or C6 cells [1] (compound 10 nM) was 83.8%,. For the same compound, the activity at 0.001 µM with 661W or C6 cells [2] turned out to be 62%.
For `CCCN1C(=O)C(O)(CC(=O)c2cccc(OC)n2)c2cc(Cl)cc(Cl)c21` (stereo not shown) [Example 30, 5,7-dichloro-3-hydroxy-3-(2-(6-methoxypyridin-2-yl)-2-oxoethyl)-1-propylindolin-2-one], in the test on 661W or C6 cells [1] (compound 1 nM), the “MTT, % protection” value was 69%,. Besides, in the test on 661W or C6 cells [2], the activity at 0.001 µM worked out at 59%.
As for `COc1cc(CC2(OC(=O)c3ccccc3)C(=O)N(CC(C)C)c3ccc(Cl)cc32)cc(OC)c1OC` (stereo not shown) [Example 35, 5-chloro-1-isobutyl-2-oxo-3-(3,4,5-trimethoxybenzyl)indolin-3-yl benzoate], in the test with 661W or C6 cells [1] (compound 800 pM), the “MTT, % protection” value is 113.5%,. Besides, the activity at 0.0008 µM with 661W or C6 cells [2] is 55%.
With `COc1cc(CC2(O)C(=O)N(CC(C)C)c3ccc(C)cc32)cc(OC)c1OC` (stereo not shown) [Example 37, 3-hydroxy-1-isobutyl-5-methyl-3-(3,4,5-trimethoxybenzyl)indolin-2-one], in the test on 661W or C6 cells [1] (compound 800 pM), the “MTT, % protection” value is reported as 68.4%,. Besides, in the test on 661W or C6 cells [2], the activity at 0.001 µM was 65%.
Regarding `CCN1C(=O)C(Cc2cc(OC)cc(OC)c2)(OC(=O)c2ccccc2)c2cc(C)ccc21` (stereo not shown) [Example 38, 3-(3,5-dimethoxybenzyl)-1-ethyl-5-methyl-2-oxoindolin-3-yl benzoate], the “MTT, % protection” value in the test on 661W or C6 cells [1] (compound 1 nM) is 84.1%,. Besides, the activity at 0.001 µM with 661W or C6 cells [2] was 78%.
The matching figures for `COc1cc(CC2(OC(=O)c3ccccc3)C(=O)N(CCc3ccccc3)c3ccc(C)cc32)cc(OC)c1` (stereo not shown) [Example 39, 3-(3,5-dimethoxybenzyl)-5-methyl-2-oxo-1-phenethylindolin-3-yl benzoate]: 83.2%, and 66%.
For `CCN1C(=O)C(Cc2cccc(OC)c2)(OC(=O)c2ccccc2)c2cc(Cl)ccc21` (stereo not shown) [Example 40, 5-chloro-1-ethyl-3-(3-methoxybenzyl)-2-oxoindolin-3-yl benzoate] the same measures were 81.1%, and 66%.
For the compound `CCCCN1C(=O)C(O)(Cc2cc(OC)cc(OC)c2)c2cc(Cl)ccc21` (stereo not shown) [Example 41, 1-butyl-5-chloro-3-(3,5-dimethoxybenzyl)-3-hydroxyindolin-2-one], the “MTT, % protection” value with 661W or C6 cells [1] (compound 1 μM) is given as 66.8%,. Moreover, the activity at 0.001 µM with 661W or C6 cells [2] came to 79%.
`CCCCN1C(=O)C(O)(Cc2cccc(OC)c2)c2cc(Cl)ccc21` (stereo not shown) [Example 42, 1-butyl-5-chloro-3-hydroxy-3-(3-methoxybenzyl)indolin-2-one]: the “MTT, % protection” value with 661W or C6 cells [1] (compound 1 nM) was 69.8%,. Moreover, the activity at 0.001 µM with 661W or C6 cells [2] stood at 71%.
For the compound `CCCN1C(=O)C(O)(Cc2cccc(OC)c2)c2cc(C)ccc21` (stereo not shown) [Example 43, 3-hydroxy-3-(3-methoxybenzyl)-5-methyl-1-propylindolin-2-one], the “MTT, % protection” value with 661W or C6 cells [1] (compound 1 nM) is reported as 64.8%,. Further, in the test on 661W or C6 cells [2], the activity at 0.001 µM was found to be 69%.
The matching figures for `COc1cc(CC2(O)C(=O)N(CC(C)C)c3ccccc32)cc(OC)c1OC` (stereo not shown) [Example 48, 3-hydroxy-1-isobutyl-3-(3,4,5-trimethoxybenzyl)indolin-2-one]: 91%, and 85%.
The matching figures for `COc1cc(CC2(OC(=O)c3ccccc3)C(=O)N(CCc3ccccc3)c3ccc(Cl)cc32)cc(OC)c1OC` (stereo not shown) [Example 50, 5-chloro-2-oxo-1-phenethyl-3-(3,4,5-trimethoxybenzyl)indolin-3-yl benzoate]: 79.2%, and 65%.
For `CCN1C(=O)C(O)(Cc2ccc(OC)cc2)c2cc(C)ccc21` (stereo not shown) [Example 51, 1-ethyl-3-hydroxy-3-(4-methoxybenzyl)-5-methylindolin-2-one] the same measures were 62.2%, and 65%.
Consider `COc1ccc(CC2(OC(=O)c3ccccc3)C(=O)N(CCCC(C)C)c3ccc(C)cc32)c(O)c1` (stereo not shown) [Example 53, 3-(2-hydroxy-4-methoxybenzyl)-5-methyl-1-(4-methylpentyl)-2-oxoindolin-3-yl benzoate], for which the “MTT, % protection” value with 661W or C6 cells [1] (compound 1 nM) is recorded as 100%,. For the same compound, the activity at 0.001 µM with 661W or C6 cells [2] stood at 91%.
The matching figures for `COc1ccc(CC2(OC(=O)c3ccccc3)C(=O)N(CCCN3CCOCC3)c3ccc(Cl)cc32)c(O)c1` (stereo not shown) [Example 56, 5-chloro-3-(2-hydroxy-4-methoxybenzyl)-1-(3-morpholinopropyl)-2-oxoindolin-3-yl benzoate]: 85.3%, and 68%.
The matching figures for `COc1ccc(O)c(CC2(OC(=O)c3ccccc3)C(=O)N(CCc3ccccc3)c3ccc(Cl)cc32)c1` (stereo not shown) [Example 61, 5-chloro-3-(2-hydroxy-5-methoxybenzyl)-2-oxo-1-phenethylindolin-3-yl benzoate]: 87.1%, and 67%.
Regarding `CCN1C(=O)C(Cc2cc(OC)ccc2O)(OC(=O)c2ccccc2)c2cc(Cl)ccc21` (stereo not shown) [Example 62, 5-chloro-1-ethyl-3-(2-hydroxy-5-methoxybenzyl)-2-oxoindolin-3-yl benzoate], in the test on 661W or C6 cells [1] (compound 800 pM), the “MTT, % protection” value is given as 86.4%,. Moreover, the activity at 0.0008 µM in the test with 661W or C6 cells [2] came to 70%.
With `CCCN1C(=O)C(Cc2c[nH]c3ccccc23)(OC(=O)c2ccccc2)c2cc(Cl)ccc21` (stereo not shown) [Example 63, 3-((1H-indol-3-yl)methyl)-5-chloro-2-oxo-1-propylindolin-3-yl benzoate], in the test with 661W or C6 cells [1] (compound 1 nM), the “MTT, % protection” value is reported as 120%,. Besides, the activity at 0.001 µM in the test with 661W or C6 cells [2] stood at 78%.
As to `CCCCN1C(=O)C(Cc2c[nH]c3ccccc23)(OC(=O)c2ccccc2)c2ccccc21` (stereo not shown) [Example 65, 3-((1H-indol-3-yl)methyl)-1-butyl-2-oxoindolin-3-yl benzoate], in the test on 661W or C6 cells [1] (compound 500 pM), the “MTT, % protection” value was 135%,. Moreover, the activity at 0.0005 µM in the test with 661W or C6 cells [2] (compound 500 pM) amounted to 61%.
